{"source": "patent US20240245628A1", "about": "“COMPOSITIONS AND METHODS FOR HEALTH COMPRISING CO-ENZYME Q10” (Bausch + Lomb Ireland Limited, priority 2023, published 2024)", "origin": "cited, not measured here", "details": "at levels as high as 800.0 mg"}
{"substance": "vitamin E", "values": [{"measurement": "adverse effects of vitamin E", "result": "No adverse effects"}]}
